From EPA's ToxRefDB 2

Key:
rat [1] = settings: Prenatal developmental toxicity study, sprague dawley, Oral, Gavage/Intubation, dose end: 19 GD
dog [2] = settings: Chronic toxicity, beagle, Oral, Feed, dose end: 104 week
mouse [3] = settings: Carcinogenicity, swiss albino, Oral, Feed, dose end: 78 week
dog [4] = settings: Combined chronic toxicity/carcinogenicity, beagle, Oral, Feed, dose end: 104 week
dog [5] = settings: Chronic toxicity; beagle; Oral; Feed; dose end: 52 week; group: systemic; systemic / in life observation / body weight / body weight + systemic / organ weight / spleen / absolute + systemic / organ weight / spleen…
rat [6] = settings: Subchronic oral toxicity in rodents, sprague dawley, Gavage/Intubation, dose end: 94 day
rabbit = settings: Prenatal developmental toxicity study; new zealand white; Oral; Gavage/Intubation; dose end: 19 GD; group: maternal; reproductive / reproductive performance / postimplantation loss / postimplantation loss + reproductive / reproductive performance / …
rat [7] = settings: Multigenerational reproductive toxicity study, sprague dawley, Oral, Feed, dose end: 2 generation
rat [8] = settings: Combined chronic toxicity/carcinogenicity, sprague dawley, Oral, Feed, dose end: 104 week
rat [9] = settings: Carcinogenicity, fischer, Oral, Gavage/Intubation, dose end: 103 week, group: systemic
mouse [10] = settings: Carcinogenicity; b6c3f1; Oral; Gavage/Intubation; dose end: 104 week; group: systemic; systemic / in life observation / body weight / body weight + systemic / pathology microscopic / stomach / cyst + systemic / pathology …
mouse [11] = settings: Subchronic oral toxicity in rodents, b6c3f1, Gavage/Intubation, dose end: 13 week, group: systemic, systemic / pathology microscopic / stomach / cytoplasmic alteration + systemic / pathology microscopic / stomach / hyperkeratosis + systemic…
rat [12] = settings: Subchronic oral toxicity in rodents, fischer, Gavage/Intubation, dose end: 13 week, group: systemic
rat [13] = settings: Subchronic oral toxicity in rodents, Diet, dose end: 90 day
rat [14] = settings: Combined chronic toxicity/carcinogenicity, sprague dawley, Oral, Feed, dose end: 24 month, group: systemic
dog [15] = settings: Chronic toxicity; beagle; Oral; Feed; dose end: 12 month; group: cholinesterase; cholinesterase / cholinesterase / cholinesterase / erythrocyte cholinesterase (che) + cholinesterase / cholinesterase / cholinesterase / …
dog [16] = settings: Subchronic oral toxicity in nonrodent, beagle, Capsule, dose end: 6 month
rat [17] = settings: Chronic toxicity, Oral, Feed, dose end: 26 month, group: systemic
rat [18] = settings: Combined chronic toxicity/carcinogenicity, wistar, Oral, Feed, dose end: 26 month
rat [19] = settings: Developmental neurotoxicity study; long evans; Injection; Subcutaneous; dose end: 30 PND; group: cannot be grouped; cholinesterase / cholinesterase / cholinesterase / cholinesterase (che) + systemic / in life observation / body weight / offspring (pup) …
[20] = group: developmental, systemic / in life observation / body weight / fetal weight
[21] = group: maternal, systemic / in life observation / mortality / mortality + systemic / pathology microscopic / liver / hepatitis + systemic / pathology …
[22] = group: cholinesterase, cholinesterase / cholinesterase / cholinesterase / plasma cholinesterase (che)
[23] = group: systemic, systemic / pathology microscopic / intestine small / hypertrophy + systemic / pathology microscopic / stomach / hypertrophy + systemic / …
[24] = group: cholinesterase, cholinesterase / cholinesterase / cholinesterase / erythrocyte cholinesterase (che) + cholinesterase / cholinesterase / cholinesterase / …
[25] = group: systemic, systemic / in life observation / body weight / body weight + systemic / in life observation / body weight / body weight gain + systemic / in…
[26] = group: systemic, systemic / pathology microscopic / intestine small / hypertrophy + systemic / in life observation / clinical signs / soft stools + systemic…
[27] = group: cholinesterase, cholinesterase / cholinesterase / cholinesterase / plasma cholinesterase (che) + cholinesterase / cholinesterase / cholinesterase / brain …
[28] = group: systemic, systemic / organ weight / liver / relative to body weight + systemic / organ weight / ovary / absolute + systemic / organ weight / ovary / …
[29] = group: offspring, systemic / in life observation / body weight / offspring (pup) weight
[30] = group: offspring, systemic / in life observation / body weight / offspring (pup) weight + developmental / offspring survival late / viability index / …
[31] = group: parental, systemic / in life observation / body weight / body weight + systemic / in life observation / food consumption / food consumption + systemic…
[32] = group: systemic, systemic / clinical chemistry / alkaline phosphatase (alp/alk) / alkaline phosphatase (alp/alk) + systemic / in life observation / body …
[33] = systemic / in life observation / clinical signs / defecation (diarrhea) + systemic / in life observation / clinical signs / urination
[34] = systemic / in life observation / clinical signs / defecation (diarrhea) + systemic / in life observation / clinical signs / urination + …
[35] = systemic / in life observation / body weight / body weight + systemic / in life observation / clinical signs / defecation (diarrhea) + …
[36] = group: systemic, systemic / in life observation / body weight / body weight gain + systemic / in life observation / mortality / mortality
[37] = systemic / pathology microscopic / nerve / [other] + systemic / pathology microscopic / nerve / proliferation
[38] = group: systemic, systemic / clinical chemistry / [other] / [other]
[39] = systemic / pathology microscopic / eye / [other]
[40] = systemic / pathology microscopic / eye / [other] + systemic / pathology microscopic / eye / atrophy + systemic / pathology microscopic / eye…
[41] = group: systemic, systemic / in life observation / body weight / body weight + systemic / in life observation / clinical signs / [other] + systemic / in life …

O=P(O)(O)CCCl [Ethephon]
LEL (rat [1]; [20]): 1800 mg/kg/day
LOAEL (rat [1]; [20]): 1800 mg/kg/day
NEL (rat [1]; [20]): 600 mg/kg/day
NOAEL (rat [1]; [20]): 600 mg/kg/day
LEL (rat [1]; [21]): 1800 mg/kg/day
LOAEL (rat [1]; [21]): 1800 mg/kg/day
NEL (rat [1]; [21]): 600 mg/kg/day
NOAEL (rat [1]; [21]): 600 mg/kg/day
LOAEL (dog [2]; group: cholinesterase, cholinesterase / cholinesterase / cholinesterase / erythrocyte cholinesterase (che)): 7.5 mg/kg/day
LEL (dog [2]; [22]): 0.75 mg/kg/day
NEL (dog [2]; [22]): < 0.75 mg/kg/day
NOAEL (dog [2]; group: cholinesterase, cholinesterase / cholinesterase / cholinesterase / plasma cholinesterase (che) + cholinesterase / cholinesterase / cholinesterase / …): 0.75 mg/kg/day
LEL (dog [2]; group: systemic, systemic / pathology microscopic / intestine small / hypertrophy + systemic / pathology microscopic / stomach / hypertrophy): 7.5 mg/kg/day
LOAEL (dog [2]; [23]): > 75 mg/kg/day
NEL (dog [2]; [23]): 0.75 mg/kg/day
NOAEL (dog [2]; [23]): ≥ 75 mg/kg/day
LEL (mouse [3]; [24]): 156 mg/kg/day
LOAEL (mouse [3]; [24]): > 7750 mg/kg/day
NEL (mouse [3]; [24]): 15.5 mg/kg/day
NOAEL (mouse [3]; [24]): ≥ 7750 mg/kg/day
LOAEL (mouse [3]; group: systemic, systemic / in life observation / body weight / body weight + systemic / in life observation / body weight / body weight gain): 1630 mg/kg/day
NEL (mouse [3]; [25]): 156 mg/kg/day
NOAEL (mouse [3]; [25]): 156 mg/kg/day
LEL (mouse [3]; group: systemic, systemic / in life observation / body weight / body weight + systemic / in life observation / body weight / body weight gain + systemic / …): 1630 mg/kg/day
LEL (dog [4]; [22]): 0.75 mg/kg/day
LOAEL (dog [4]; [22]): 0.75 mg/kg/day
NEL (dog [4]; [22]): < 0.75 mg/kg/day
NOAEL (dog [4]; [22]): < 0.75 mg/kg/day
LEL (dog [4]; [26]): 7.5 mg/kg/day
LOAEL (dog [4]; [26]): > 37.5 mg/kg/day
NEL (dog [4]; [26]): 0.75 mg/kg/day
NOAEL (dog [4]; [26]): ≥ 37.5 mg/kg/day
LEL (dog [5]): 52.1 mg/kg/day
LOAEL (dog [5]): 52.1 mg/kg/day
NEL (dog [5]): 28.5 mg/kg/day
NOAEL (dog [5]): 28.5 mg/kg/day
LEL (rat [6]; [22]): 50 mg/kg/day
NEL (rat [6]; [22]): < 50 mg/kg/day
LOAEL (rat [6]; [27]): > 200 mg/kg/day
NOAEL (rat [6]; [27]): ≥ 200 mg/kg/day
LEL (rat [6]; [28]): 200 mg/kg/day
LOAEL (rat [6]; [28]): 200 mg/kg/day
NEL (rat [6]; [28]): 100 mg/kg/day
NOAEL (rat [6]; [28]): 100 mg/kg/day
LEL (rabbit): 250 mg/kg/day
LOAEL (rabbit): 250 mg/kg/day
NEL (rabbit): 125 mg/kg/day
NOAEL (rabbit): 125 mg/kg/day
LEL (rat [7]; [29]): 198 mg/kg/day
LOAEL (rat [7]; [29]): 198 mg/kg/day
NEL (rat [7]; [30]): 19.8 mg/kg/day
NOAEL (rat [7]; [30]): 19.8 mg/kg/day
LEL (rat [7]; [31]): 245 mg/kg/day
LOAEL (rat [7]; [31]): 245 mg/kg/day
NEL (rat [7]; [31]): 23.7 mg/kg/day
NOAEL (rat [7]; [31]): 23.7 mg/kg/day
LEL (rat [8]; [24]): 150 mg/kg/day
LOAEL (rat [8]; [24]): 150 mg/kg/day
NEL (rat [8]; [24]): 15 mg/kg/day
NOAEL (rat [8]; [24]): 15 mg/kg/day
LEL (rat [8]; [32]): 15 mg/kg/day
LOAEL (rat [8]; [32]): > 150 mg/kg/day
NEL (rat [8]; [32]): 1.5 mg/kg/day
NOAEL (rat [8]; [32]): ≥ 150 mg/kg/day

CC1(C)S[C@@H]2[C@H](NC(=O)COc3ccccc3)C(=O)N2[C@H]1C(=O)[O-].[K+] [Penicillin VK]
LEL (rat [9]; [33]): 500 mg/kg/day
NEL (rat [9]; [33]): < 500 mg/kg/day
LOAEL (rat [9]; [34]): > 1000 mg/kg/day
NOAEL (rat [9]; [34]): ≥ 1000 mg/kg/day
LEL (mouse [10]): 500 mg/kg/day
LOAEL (mouse [10]): > 1000 mg/kg/day
NEL (mouse [10]): < 500 mg/kg/day
NOAEL (mouse [10]): ≥ 1000 mg/kg/day
LEL (mouse [11]): 100 mg/kg/day
LOAEL (mouse [11]): > 3000 mg/kg/day
NEL (mouse [11]): < 100 mg/kg/day
NOAEL (mouse [11]): ≥ 3000 mg/kg/day
LOAEL (rat [12]; [35]): > 3000 mg/kg/day
NEL (rat [12]; [35]): 370 mg/kg/day
NOAEL (rat [12]; [35]): ≥ 3000 mg/kg/day
LEL (rat [12]; systemic / in life observation / clinical signs / defecation (diarrhea)): 750 mg/kg/day

CCOP(=S)(OCC)Oc1ccc([N+](=O)[O-])cc1 [Parathion]
LEL (rat [13]; [24]): 0.4 mg/kg/day
LOAEL (rat [13]; [24]): 4 mg/kg/day
NEL (rat [13]; [24]): 0.04 mg/kg/day
NOAEL (rat [13]; [24]): 0.4 mg/kg/day
LEL (rat [13]; [36]): 4 mg/kg/day
LOAEL (rat [13]; [36]): 4 mg/kg/day
NEL (rat [13]; [36]): 0.4 mg/kg/day
NOAEL (rat [13]; [36]): 0.4 mg/kg/day
NEL (rat [14]; systemic / in life observation / clinical signs / abnormal gait): 0.25 mg/kg/day
LOAEL (rat [14]; [37]): 2.5 mg/kg/day
NOAEL (rat [14]; [37]): 0.25 mg/kg/day
LEL (rat [14]; systemic / pathology microscopic / nerve / [other] + systemic / pathology microscopic / nerve / proliferation + systemic / in life …): 2.5 mg/kg/day
LEL (dog [15]): 0.01 mg/kg/day
LOAEL (dog [15]): 0.01 mg/kg/day
NEL (dog [15]): < 0.01 mg/kg/day
NOAEL (dog [15]): < 0.01 mg/kg/day
LEL (dog [16]; [22]): 0.0024 mg/kg/day
LOAEL (dog [16]; [22]): 0.0079 mg/kg/day
NEL (dog [16]; [22]): < 0.0024 mg/kg/day
NOAEL (dog [16]; group: cholinesterase, cholinesterase / cholinesterase / cholinesterase / plasma cholinesterase (che) + cholinesterase / cholinesterase / cholinesterase / brain (…): 0.0024 mg/kg/day
LEL (dog [16]; [38]): 0.794 mg/kg/day
LOAEL (dog [16]; [38]): > 0.794 mg/kg/day
NEL (dog [16]; [38]): 0.0079 mg/kg/day
NOAEL (dog [16]; [38]): ≥ 0.794 mg/kg/day
NEL (rat [17]; [39]): 0.4 mg/kg/day
NOAEL (rat [17]; [39]): 0.4 mg/kg/day
LEL (rat [17]; [40]): 1.6 mg/kg/day
LOAEL (rat [17]; [40]): 1.6 mg/kg/day
LEL (rat [18]; [24]): 0.42 mg/kg/day
LOAEL (rat [18]; [24]): 0.42 mg/kg/day
NEL (rat [18]; [24]): 0.1 mg/kg/day
NOAEL (rat [18]; [24]): 0.1 mg/kg/day
LOAEL (rat [18]; [41]): > 1.75 mg/kg/day
NOAEL (rat [18]; [41]): ≥ 1.75 mg/kg/day
LEL (rat [18]; group: systemic, systemic / pathology microscopic / eye / [other]): 0.53 mg/kg/day
NEL (rat [18]; group: systemic, systemic / pathology microscopic / eye / [other] + systemic / clinical chemistry / aspartate aminotransferase (ast/sgot) / aspartate …): 0.14 mg/kg/day
LEL (rat [19]): 1.3 mg/kg/day
LOAEL (rat [19]): > 1.9 mg/kg/day
NEL (rat [19]): < 1.3 mg/kg/day
NOAEL (rat [19]): ≥ 1.9 mg/kg/day
